Reference: patent US7951577B2, “Liquid crystals with reduced toxicity and applications thereof” (Wisconsin Alumni Research Foundation, priority 2003, dated 2011)
Entries after “also recorded” stand apart in the source; their conditions may differ. Read-outs that look alike come from different tables or passages of the source.

What was measured:
[1] = system: SV-40 human corneal epithelial cells (HCEC); assay: TRANSWELL assay, prolonged (24 hour) exposure to liquid crystal, Calcein-AM readout; format: cell-based; conditions: 50 μL liquid crystal in upper chamber, confluent and sub-confluent SV-40 HCEC
Method: FIGS. 5A and 5B present the results of additional experiments to evaluate the toxicity of two different liquid crystals, 5CB and TL-205, following prolonged exposure to cells. For these experiments, TRANSWELL assays were carried out in which cell cultures were plated onto membranes in a TRANSWELL plate such that they were fed from below by liquid media while in continual contact with the liquid crystal, which was directly overlaid on the cells themselves. Briefly, SV-40 human corneal epithelial cells (HCEC) were grown in SHEM+10% fetal bovine serum. Cells were removed from T-75 tissue culture plates via trypsinization, and counted using a hemacytometer. Cells were plated onto TRANSWELL membranes (3 μm pore size, Corning, Inc., Corning, N.Y.) that allowed them to remain in contact with the liquid crystal as well as with the growth medium for 24 hours. Cells were plated at a concentration of 20,000 cells/well and allowed to grow. Some cells were tested at a density of confluence, approximately 45,000 cells (FIG. 5A), while another set was tested at a density of sub-confluence, approximately 30,000 cells/well (FIG. 5B). […] Calcein-AM was added to each well, and the cell fluorescence was measured to assess cell number. Fluorescence was read using a SYNERGY HT plate reader (Bio-Tek, Instruments, Inc., Winooksi, Vt.).

[2] = system: SV-40 transformed human corneal epithelial cells (HCEC); format: cell-based; conditions: SV-40 HCEC, 4 hours under liquid crystal
[3] = system: vesicular stomatitis virus (VSV); format: cell-based; conditions: 2×10^7 pfu VSV, room temperature, 30 minutes, 1 hour or 4 hours
[4] = system: vesicular stomatitis virus (VSV); format: cell-based; conditions: 1.5×10^7 pfu VSV, 1 hour at 37° C., supernatant titrated after 2 days
[5] = system: HeLa cells; assay: Effects of liquid crystals on HeLa cells (morphology and viability); conditions: DSCG in water; 30% (w/v) A3 in H2O; 21% (w/v) C14AO in H2O with 3% C10OH
Method: (§1) HeLa mammalian cell line (from human cervical cancer cells) were grown in poly-L-lysine (MW 30,000 to 70,000)-treated coverslips in a 12-well plate in MEM medium supplemented with 10% fetal bovine serum. HeLa cells were grown in tissue culture plates until the cells reached a confluency of 90 to 95% within 24 hrs and were maintained at 37° C. with 5% CO2.
(§2) After incubation for less than one day, the DMEM was removed, the cells washed with PBS, 250 μl of the liquid crystal solution was overlaid.
(§3) The overlaid cultures were incubated at 37° C. for 4 hours, at which time the liquid crystals were removed, the cells were washed with PBS, and 1 mL of medium DMEM was added back to the cells. The cells were then incubated in the medium at 37° C. for an additional 4 days and then evaluated for morphology and viability.

[6] = system: Human IgG; assay: Test of antibody binding in lyotropic liquid crystals (FITC anti-Human IgG to immobilized Human IgG); conditions: 200 nM FITC anti-Human IgG in liquid crystal (10% DSCG), 4 hours, room temperature
[7] = Viscosity of lyotropic liquid crystals; format: physicochemical; conditions: DSCG 9% wt, Triton 60% wt, Brij 50% wt, AMO 20% wt
Method: Lyotropic liquid crystals were investigated for their biocompatibility and bio-inertness based on the following three criteria: (1) viscosity; (2) observed birefringence of the liquid crystal; and (3) protein binding activity when proteins are dissolved in the lyotropic liquid crystals. The stability of protein structure in the lyotropic liquid crystals is implicitly tested based on the evaluation of criterion (3). The binding activity of antibodies in the liquid crystal was tested by covalent attachment of an antibody to a solid surface and measurement of the binding of a fluorescently labeled antibody to the immobilized antibody.

[8] = system: HeLa cells
Method: as §1, §2, §3

[9] = pH of DSCG in water; format: physicochemical

| Compound | VSV infectivity after incubation of virus with liquid crystal [3] | VSV growth after inoculation of HeLa cells in the presence of liquid crystal [4] | antibody binding activity in the lyotropic liquid crystal (in words) [6] | Viscosity [7] | further results |
| --- | --- | --- | --- | --- | --- |
| CCCCCc1ccc(-c2ccc(C#N)cc2)cc1 [5CB, 4-cyano-4′-pentylbiphenyl] |  |  |  |  | cell viability after prolonged exposure [1]: appears to kill cells; toxicity to cells (in words) [2]: toxic |
| COCCOCCOCCOCc1c(C)c(COCCOCCOCCOC)c(C)c(COCCOCCOCCOC)c1C [A3] | no growth of VSV was observed | no growth of VSV was observed |  |  | appearance of HeLa cells during contact with liquid crystal [5]: cell membranes started to show a rough appearance (blebbing) and the nuclei condensed |
| CCCCCCCCCCCCCC[N+](C)(C)[O-] [AMO, tetradecyldimethylamineoxide] |  |  | preserve specific antibody binding activity | 50-200 cp |  |
| O=C(O)c1cc(=O)c2c(OCC(O)COc3cccc4oc(C(=O)O)cc(=O)c34)cccc2o1 [DSCG, disodium chromoglycate] | VSV is stable in the presence of DSCG; also recorded: the concentration of the virus had not changed significantly | VSV can infect cells in the presence of DSCG | FITC fluorescence was only found in the arrayed spots | 0.5-30 cp | HeLa cells after liquid crystal removed and medium added back [8]: proliferated well after the medium was added; appearance of HeLa cells during contact with liquid crystal [8]: cells rounded up and detached from the surface; pH [9]: < 6 |
| Laurate |  |  | interfered with antibody binding activities | 1-100 cp |  |
| Triton |  |  | interfered with antibody binding activities | >100 cp |  |
